{"source": "patent US7244446B2", "about": "“Method for providing long-lasting pain diminishment through topical or intranasal administration of civamide” (Winston Laboratories, Inc., priority 2003, dated 2007)", "key": {"[1]": {"system": "patients with episodic cluster headache", "assay": "Episodic cluster headache patients, 0.01% civamide metered nasal spray twice daily for seven days, six-week follow-up", "type": "in vivo, human", "details": "0.01% civamide in aqueous vehicle, 7 days", "experimental": "Patients with episodic cluster headache were treated with 0.01% civamide in an aqueous vehicle delivered by metered nasal spray twice daily for seven days. The patients were then followed for an additional six weeks after treatment."}, "[2]": {"system": "painful, inflammatory or allergic disorders", "details": "compositions containing civamide; from U.S. Pat. No. 5,063,060; cited from earlier work"}, "[3]": {"system": "patients with episodic cluster headaches", "assay": "Episodic cluster headache patients, 0.025% civamide intranasally once daily for seven days, three-week follow-up", "type": "in vivo, human", "details": "0.1 ml of 0.025% civamide in aqueous vehicle, each nostril, 7 days", "experimental": "Patients with episodic cluster headaches were treated with 0.1 ml of 0.025% civamide in an aqueous vehicle given once daily intranasally to each nostril for seven days. Following completion of the seven-day treatment period, cluster headache patients were followed for another three weeks during which they received no treatment."}, "[4]": {"system": "patients with long-standing painful osteoarthritis of the knees", "assay": "Painful osteoarthritis of the knees, 0.075% civamide cream three times daily for two to four weeks, then discontinued", "type": "in vivo, human", "details": "0.075% civamide in cream vehicle, topical", "source_text": "Patients with long-standing painful osteoarthritis of the knees applied 0.075% civamide in a cream vehicle three times daily for two to four weeks, and then the medication was discontinued. Relief of painful osteoarthritis continued for as long as 2–4 months after discontinuing the medication."}}, "data": [{"smiles": "COc1cc(CNC(=O)CCCC/C=C\\C(C)C)ccc1O", "note": "[civamide, cis-8-methyl-N-vanillyl-6-nonenamide]", "values": [{"measurement": "Frequency of cluster headache over follow-up", "setting": "[1]; six weeks follow-up", "value": "declined continuously over the six-week period"}, {"measurement": "Reduction in headaches during week six", "setting": "[1]; week six after treatment", "value": "~65", "unit": "%"}, {"measurement": "Efficacy compared with compositions containing capsaicin", "setting": "[2]", "value": "comparable in efficacy to compositions containing capsaicin"}, {"measurement": "Local adverse effects compared with capsaicin", "setting": "[2]", "value": "significantly less local adverse effects normally associated with capsaicin"}, {"measurement": "Headache frequency three weeks after treatment versus during or immediately after treatment", "setting": "[3]; three weeks after completion", "value": "lower three weeks following completion of treatment than during or immediately after the treatment period"}, {"measurement": "Frequency of cluster headaches after completion of treatment", "setting": "[3]; three weeks follow-up without treatment", "value": "decreased continuously over the three weeks following completion of the short course (7 days) of treatment"}, {"measurement": "Duration of relief of painful osteoarthritis after discontinuing the medication", "setting": "[4]", "value": "2–4 months"}]}]}
